Measurements taken from article PMC3583384 (Journal of medicinal chemistry, 2012).
Entries after “also recorded” stand apart in the source; their conditions may differ. Where two headings read alike, the source gives them in different places.

What was measured:
[1] = test system: rats with normal iron stores; conditions: for BUN / SCr: rats po 237 µmol/kg b.i.d. × 7 d (6: euthanized day 8)
[2] = Ligand-plasma binding, primate plasma; type: in vitro ADME; conditions: 37 °C, 4 h, 3,000 MWCO filter
[3] = Ligand-plasma binding, rodent plasma; type: in vitro ADME; conditions: 37 °C, 4 h, 3,000 MWCO filter
[4] = test system: iron overloaded primates; conditions: cited from earlier work
[5] = test system: non-iron-overloaded bile duct-cannulated rats; conditions: rats po 150 µmol/kg, cited from earlier work; for relative percentages of the iron excreted in the bile and urine [bile/urine]: Cremophor RH-40/water
[6] = cited from earlier work
[7] = test system: rats; conditions: cited from earlier work
[8] = test system: iron overloaded primates; conditions: primates po 75 µmol/kg, monosodium salt
[9] = test system: patients; conditions: clinical trial, twice daily dosing; cited from earlier work

COCCOCCOc1ccnc(C2=N[C@@](C)(C(=O)[O-])CS2)c1O.[Na+] [Compound 10, (S)-4,5-dihydro-2-[3-hydroxy-4-(3,6-dioxaheptyloxy)-2-pyridinyl]-4-methyl-4-thiazolecarboxylic acid]
BUN [1]: well within the normal range
SCr [1]: well within the normal range
binding of the ligand to plasma [2]: little, if any, binding
binding of the ligand to plasma [3]: little, if any, binding

C[C@]1(C(=O)[O-])CSC(c2ccccc2O)=N1.[Na+] [Compound 2, (S)-4,5-dihydro-2-(2-hydroxyphenyl)-4-methyl-4-thiazolecarboxylic acid]
relative percentages of the iron excreted in the feces and urine [feces/urine] ([4]; primates po 75 µmol/kg): 76/24
relative percentages of the iron excreted in the bile and urine [bile/urine] [5]: 100/0
time at which deferration had returned to baseline [5]: ≤ 12 h
gastrointestinal toxicity [6]: serious gastrointestinal (GI) problems
nephrotoxicity [6]: not overtly nephrotoxic

COCCOCCOCCOc1ccc(C2=N[C@@](C)(C(=O)O)CS2)c(O)c1 [Compound 4, (S)-4,5-dihydro-2-[2-hydroxy-4-(3,6,9-trioxadecyloxy)]-4-methyl-4-thiazolecarboxylic acid]
nephrotoxicity ([7]; rats po once or twice daily): virtually nephrotoxicity-free

COCCOCCOc1cnc(C2=N[C@@](C)(C(=O)[O-])CS2)c(O)c1.[Na+] [Compound 8, (S)-4,5-dihydro-2-[3-hydroxy-5-(3,6-dioxaheptyloxy)-2-pyridinyl]-4-methyl-4-thiazolecarboxylic acid]
BUN [1]: well within the normal range
SCr [1]: well within the normal range

C[C@]1(C(=O)[O-])CSC(c2ncccc2O)=N1.[Na+] [Compound 1, (S)-4,5-dihydro-2-(3-hydroxy-2-pyridinyl)-4-methyl-4-thiazolecarboxylic acid]
nephrotoxicity ([7]; rats po once daily 384 µmol/kg/d): severely nephrotoxic
relative percentages of the iron excreted in the feces and urine [feces/urine] ([4]; primates po 150 µmol/kg): 78/22
relative percentages of the iron excreted in the bile and urine [bile/urine] [5]: 93/7
time at which deferration had returned to baseline [5]: ≤ 12 h

C[C@]1(C(=O)[O-])CSC(c2ncc(O)cc2O)=N1.[Na+] [Compound 6, (S)-4,5-dihydro-2-(3,5-dihydroxy-2-pyridinyl)-4-methyl-4-thiazolecarboxylic acid]
urinary Kim-1 ([1]; rats po 237 µmol/kg b.i.d., until day 5): < 50 ng/kg/24h
relative percentages of the iron excreted in the feces and urine [feces/urine] [8]: 58/42

C[C@]1(C(=O)[O-])CSC(c2ccc(O)cc2O)=N1.[Na+] [Compound 3, (S)-2-(2,4-dihydroxyphenyl)-4,5-dihydro-4-methyl-4-thiazolecarboxylic acid]
renal findings in patients [9]: increases in blood urea nitrogen (BUN) and serum creatinine (SCr) levels; also recorded: induced proximal tubule nephrotoxicity
